Assays:
[1] = test system: AML-12 mouse hepatocyte cell line; experiment: Oil Red O staining, lipid content of AML-12 hepatocytes (Example 1); type: cell-based; conditions: AML-12 cells, 24 hours
[2] = test system: ATP citrate lyase (ACL) mRNA; experiment: Real-time PCR of ACL mRNA in cultured AML-12 hepatocytes; type: cell-based, mouse; conditions: AML-12 cells, 24 hours; for mRNA for ACL: 10^-6M, control 100.0%, n=3
Protocol: (§1) Total RNA was isolated from cultured hepatocytes using Trizol reagent (Invitrogen, USA) and RNA extracted according to the manufacturer's instructions, then dissolved in sterile DEPC water and stored at −80° C. 1 μg RNA of sample RNA was transcribed to cDNA with the GeneAmp RNA Core Kit (Applied Biosystems, Branchburg, N.J.). Primer sequences ATP citrate lyase (ACL): forward 5′-GAAGCTGACCTTGCTGAACC-3′, reverse 5′-CTGCCTCCAATGATGAGGAT-3′; fatty acid synthase (FAS): forward 5′-TGGGTTCTAGCCAGCAGAGT-3′, reverse: 5′-ACCACCAGAGACCGTTATGC-3′. PCR was performed with the SYBR Green PCR Kit (Applied Biosystems, Foster City, Calif.) following the manufacturer's instructions and carried out on the Mx3005P™ Q-PCR system (Stratagene, La Jolla, Calif.) in 50 μl volume. The number of copies for each amplicon was calculated by Mx3005P software, normalized to GAPDH and expressed as a dimensionless ratio.

AML-12 hepatocytic cells = experiment: Fat accumulation in AML-12 cells: Oil Red O staining and cellular triglyceride (Example 7); conditions: twenty-four hours; for intracellular triglyceride levels / lipid accumulation by Oil Red O staining / blockade of the effect of NECA on hepatocyte triglyceride accumulation: NECA 10 mM; for blockade of the effect of NECA on hepatocyte triglyceride accumulation: MRS1706 1 mM
Protocol: Hepatocyte cell culture, triglyceride measurement and oil red O staining of hepatocytes. […] AML-12 Cells were grown in 1:1 mixture of DMEM-Ham's F-12 medium supplemented with 0.005 mg/ml insulin, 0.005 mg/ml transferrin, 5 ng/ml selenium, 40 ng/ml dexamethasone, 10% fetal bovine serum and antibiotics. Upon reaching 70-80% confluence the cells were treated for 6 hours in serum-free DMEM-Ham's F-12 medium and then treated with different adenosine receptor agonists, antagonists or vehicle (DSMO, 1.28×10^−5M), respectively. The method of the triglyceride measurement of hepatocytes is the same as the liver tissue. The cells were fixed with 10% neutral formalin, and Oil Red O staining as described above.

[3] = test system: fatty acid synthase (FAS) mRNA; experiment: Real-time PCR of FAS mRNA in cultured AML-12 hepatocytes; type: cell-based, mouse; conditions: AML-12 cells, 24 hours; for mRNA for FAS: 10^-6M, control 100.0%, n=3
Protocol: as §1

[4] = test system: ACL, FAS, ACCα, CPTI, PPARα, PPARγ and SREBP1 mRNA in mouse liver tissue; experiment: Real-time PCR of hepatic mRNA expression in ethanol-fed mice (Example 6); type: in vivo; conditions: chronic ethanol ingestion, 50 mg/Kg/Day, n=5
Protocol: Real-time PCR quantitation of mRNA. Total RNA was isolated from liver tissue using Trizol reagent (Invitrogen, USA) and RNA extracted according to the manufacturer's instructions, then dissolved in sterile DEPC water and stored at −80° C. 1 μg of sample RNA was transcribed to cDNA with the GeneAmp RNA Core Kit (Applied Biosystems, Branchburg, N.J.). […] The number of copies for each amplicon was calculated by Mx3005P software, normalized to GAPDH and expressed as a dimensionless ratio.
Materials and methods. mRNA expression of genes in hepatic tissue was assessed by Real-time PCR and normalized to GAPDH. […] The number of copies for each amplicon was calculated by Mx3005P software, normalized to GAPDH and expressed as a dimensionless ratio.

[5] = test system: ethanol-induced fatty liver in C57Bl/6 mice; experiment: Ethanol-induced fatty liver in mice treated with adenosine receptor antagonists (Example 5); type: in vivo, mouse; conditions: ethanol diet 6 weeks, 50 mg/Kg/Day, versus ethanol-treated wild type mice
Text: Mouse models of fatty livers and treatment. Mice were fed an ethanol-containing liquid Lieber-De-Carli diet (ethanol provides 350 Kcal/L) or a calorie equivalent diet supplemented with maltose (BioServ Inc., Frenchtown, N.J.) for 6 weeks. […] In first week, animals were gradually introduced to the ethanol diet following the manufacturer's instructions. Mice were sacrificed by CO2 narcosis at the end of the experiment and their livers were collected. Two wild type mice and one CD73 knockout mouse on an ethanol-containing diet died, and none of the antagonist-treated or other knockout mice died during the course of these experiments.
Hematoxylin-Eosin (H&E) and Oil Red O staining of liver sections. Livers were fixed with 10% neutral formalin, embedded in paraffin and stained with H&E for histological examination. Liver steatosis was graded as previously described (Hong et al., Hepatology (2004) 40:933-941) based on the semiquantitative estimation of the percentage of lipid-laden hepatocytes in the liver according to the following criteria: grade 0: no hepatocytes involved; grade 1: 1% to 25% of hepatocytes involved; grade 2: 26% to 50% of hepatocytes involved; grade 3: 51% to 75% of hepatocytes involved; and grade 4: 76% to 100% of hepatocytes involved. At least five random different high power fields (hpf) of each cross-section (400× magnification) were graded in a blinded way. […]
Measurements of serum AST and triglyceride. […] AST and triglyceride were measured by standard techniques in the Clinical Laboratory of Bellevue Hospital. […]
Materials and Methods. […] The liver and body of the mice were weighed on the day of sacrifice and the liver/total body weight ratio calculated. The serum AST and triglyceride and hepatic tissue triglyceride levels were also measured, as described in Example 3, supra. […]

Row | Compound | mRNA for ACL [2] [%] | intracellular triglyceride levels (AML-12 hepatocytic cells; CPA 1 mM) | lipid accumulation by Oil Red O staining (AML-12 hepatocytic cells; CPA 1 mM) | mRNA for FAS [3] [%] | serum AST levels [5] | blockade of the effect of NECA on hepatocyte triglyceride accumulation (AML-12 hepatocytic cells; DPCPX 1mM) | also measured
1 | OC[C@H]1O[C@@H](n2cnc3c(NC4CCCC4)ncnc32)[C@H](O)[C@@H]1O [CPA, N6-cyclopentyladenosine] | 181.4±12.9 | increased | accumulated lipid | 164.2±6.8 | – | – | lipid content of hepatocytes ([1]; CPA 10^-6M, Oil Red O): significantly increased
2 | CCCn1c(=O)c2[nH]c(C3CCCC3)nc2n(CCC)c1=O [DPCPX, 1,3 dipropyl-8-cyclopentylxantine] | 92.0±5.2 | – | – | 105.8±5.3 | significantly lower | partly blocked | blockade of the effect of CPA on lipid content of hepatocytes ([1]; CPA 10^-6M + DPCPX 10^-6M): nearly completely blocked; ethanol-induced change of mRNA expression of ACCα, CPT1 and PPARα in liver [4]: reduced; ethanol-induced mRNA expression of ACL, FAS, PPARγ and SREBP1 in liver [4]: prevented the ethanol-induced increase in expression; blockade of the CPA-induced increase of mRNA for ACL [2]: completely blocked; blockade of the effect of CPA on hepatocyte triglyceride accumulation (AML-12 hepatocytic cells; CPA 1 mM, DPCPX 1mM): almost completely abrogated; blockade of the CPA-induced increase of mRNA for FAS [3]: completely blocked
3 | CCCn1c(=O)c2[nH]c(-c3ccc(OCC(=O)Nc4ccc(C(C)=O)cc4)cc3)nc2n(CCC)c1=O [MRS1706, N-(4-aceptylphenyl)-2-[4-(2,3,6,7-tetrahydro-2,6-dioxo-1,3-dipropyl-1H-purine-8-yl)phenoxy]acetamide] | – | – | – | – | – | almost completely abrogated | –
4 | CCNC(=O)[C@H]1O[C@@H](n2cnc3c(N)ncnc32)[C@H](O)[C@@H]1O [NECA, 5′-N-ethylcarboxamidoadenosine] | – | increased | accumulated lipid | – | – | – | –
5 | CCCn1c(=O)[nH]c(=O)c2[nH]cnc21 [enprofylline, 3-propylxanthine] | – | – | – | – | significantly lower | – | serum triglyceride levels [5]: significant reduction

From patent US20090208550A1, “Methods and compositions for treating hepatic diseases” (priority 2007, published 2009)
